Tests used:
hMLH1 = hMLH1 mRNA levels by TaqMan qRT-PCR in transfected HEK293T cells; format: cell-based, human; details: for activation of hMLH1 by dCas9 direct fusions (relative change in mRNA levels): same combination of sgRNAs as Casilio-ME; for hMLH1 expression, fold over background (change in mRNA levels): sgRNAs 3+7, 60 hours post-transfection, GAPDH normalised
Procedure: To test the system, HEK293T cells were transfected with Casilio-ME components including Ct or Nt-fusion TET1-effector and a combination of 3 or 2 sgRNAs. Relative levels of hMLH1 mRNA were determined in TaqMan assays by using RNA extracted from cells 60 hours post-transfection and GAPDH as endogenous control for normalization of qRT-PCR measurements.
Cell culture and transfection. HEK293T cells were cultivated in Dulbecco's modified Eagle's medium (DMEM)(Sigma) with 10% fetal bovine serum (FBS)(Lonza), 4% Glutamax (Gibco), 1% Sodium Pyruvate (Gibco) and penicillin-streptomycin (Gibco) in an incubator set to 37° C. and 5% CO2. When indicated cells were treated with 2.5 μM or 5 μM 5-Azacytidine (sigma) as indicated with a daily change of medium containing freshly diluted drug. Cells were seeded into 12-well plates at 150,000 cells per well the day before being transfected with 100 ng of dCas9 construct, 100 ng of modified sgRNA construct and 200 ng of PUF-fusion with Attractene transfection reagent according to manufacturer's instructions (Qiagen). In dCas9-direct fusion experiments, cells were transfected with 200 ng dCas9-fusion constructs and 200 ng of modified sgRNA constructs. Transfected cells were harvested 60 hours after transfection, or otherwise indicated, and cell pellets were used for extractions of RNA, genomic DNA and protein.
Quantitative RT-PCR analysis. Cells were harvested, washed with Dulbecco's phosphate-buffered saline (dPBS), centrifuged at 125×g for 5 min and then the flash-frozen pellets were stored at −80° C. RNA was extracted using RNeasy Plus Mini Kit according to the manufacturer's instructions (Qiagen). cDNA libraries were made using Applied Biosystems High Capacity RNA-to-cDNA kit with 200 ng to 1 μg of RNA. TaqMan gene expression assays (Applied Biosystems) were designed using GAPDH (Hs03929097, VIC) as endogenous control and hMLH1 (Hs00179866, FAM) as target. TaqMan Universal Master Mix II, with UNG (Applied Biosystems) was used for Quantitative PCR (qPCR), with 2 μl of diluted cDNA used for each reaction. Activation was analyzed with the Applied Biosystems ViiA7 instrument. Gene expression levels were calculated by “delta delta Ct” algorithm and normalized to control samples.

TetO::tdTomato transgene = TetO::tdTomato transgene activation measured by FACS; format: cell-based
Source text: In particular, to test whether appending PBS to the 3′ end of sgRNA affects sgRNA function, a series of modified Tet-targeting (sgTetO) or non-targeting control (sgControl) sgRNA were generated, with 0 copy, 5 copies, 15 copies, 25 copies, and 47 copies of the 8-mer Pumilio homologue domain-binding sequence (PBS) for PUF (3-2) (also simply referred to as PUFa) [PBS32 or PBSa: SEQ ID NO:8 (5′-UGUAUgUA-3′)], PUF(6-2/7-2) (also simply referred to as PUFb) [PBS6272 or PBSb: SEQ ID NO:9 (5′-UugAUAUA-3′)].
Cells were transfected with dCas9-VP64 with the different sgRNA scaffolds, and were analyzed by fluorescent-activated cell sorting (FACS) two days after transfection (FIG. 1B).
Fusions of PUF(3-2)::VP64 and PUF(6-2/7-2)::VP64, which interacts with sgRNA (sgRNA-PBS32) with 5′-UGUAUgUA-3′ binding sites and sgRNA-PBS6272 with 5′-UugAUAUA-3′ binding sites, respectively, were created, and their activity to turn on tdTomato expression in conjunction with dCas9 was tested. In addition, two additional pairs, PUFw-VP64 recognizing PBSw (5′-UGUAUAUA-3′) and PUFc-VP64 recognizing PBSc (5′-UugAUgUA-3′), were also constructed to test their ability to activate the same TetO::tdTomato expression in conjunction with dCas9 (FIG. 1D).
Cell Culture for Experiments. HEK293T cells were cultivated in Dulbecco's modified Eagle's medium (DMEM)(Sigma) with 10% fetal bovine serum (FBS)(Lonza), 4% Glutamax (Gibco), 1% Sodium Pyruvate (Gibco) and penicillin-streptomycin (Gibco). Incubator conditions were 37° C. and 5% CO2. For activation experiments, cells were seeded into 12-well plates at 100,000 cells per well the day before being transfected with 200 ng of dCas9 construct, 100 ng of modified sgRNA and 100 ng of PUF-fusion with Attractene transfection reagent (Qiagen). After transfection, cells were grown for 48 hrs and harvested for either RNA extraction or fluorescent-activated cell sorting (FACS). […]
Fluorescent-Activated Cell Sorting. […] Samples were analyzed on a FACScalibur flow cytometer using CellQuest Pro software (BD Bioscience). […] were collected in each run.

Row | Molecule | activation of hMLH1 by dCas9 direct fusions (relative change in mRNA levels) (hMLH1; HEK293T) | hMLH1 expression, fold over background (change in mRNA levels) (hMLH1; HEK293T) [fold] | further results
1 | dCas9-TET1(CD): direct fusion of TET1(CD) to the C-terminus of dCas9 | relatively weak activation | 19 | hMLH1 activation relative to dCas9-p65HSF1 (hMLH1; HEK293T, same sgRNA combination): at best twice the activity obtained with transcription activator dCas9 fusion; hMLH1 activation as percentage of the activation obtained using Casilio-ME (hMLH1; same sgRNAs combination, parallel experiment): about 14%
2 | TET1(CD)-dCas9: direct fusion of TET1(CD) to the N-terminus of dCas9 | much weaker activation than its respective C-terminal fusion |  | 
3 | PUFa-TET1(CD): hTET1 catalytic domain (residues 1418 to 2136) fused to the C-terminus of PUFa (protein) MIDGGGGSDPKKKRKVDPKKKRKVDPKKKRKVGSTGSRNDGGGGSGGGGSGGGGSGRAGILPPKKKRKVSRGRSRLLEDFRNNRYPNLQLREIAGHIMEFSQDQHGSRFIQLKLERATPAERQLVFNEILQAAYQLMVDVFGNYVIQKFFEFGSLEQKLALAERIRGHVLSLALQMYGSRVIEKALEFIPSDQQNEMVRELDGHVLKCVKDQNGNHVVQKCIECVQPQSLQFIIDAFKGQVFALSTHPYGCRVIQRILEHCLPDQTLPILEELHQHTEQLVQDQYGNYVIQHVLEHGRPEDKSKIVAEIRGNVLVLSQHKFASNVVEKCVTHASRTERAVLIDEVCTMNDGPHSALYTMMKDQYANYVVQKMIDVAEPGQRKIVMHKIRPHIATLRKYTYGKHILAKLEKYYMKNGVDLGDPKKKRKVDPKKKRKVGGRGGGGSGGGGSGGGGSGPAELPTCSCLDRVIQKDKGPYYTHLGAGPSVAAVREIMENRYGQKGNAIRIEIVVYTGKEGKSSHGCPIAKWVLRRSSDEEKVLCLVRQRTGHHCPTAVMVVLIMVWDGIPLPMADRLYTELTENLKSYNGHPTDRRCTLNENRTCTCQGIDPETCGASFSFGCSWSMYFNGCKFGRSPSPRRFRIDPSSPLHEKNLEDNLQSLATRLAPIYKQYAPVAYQNQVEYENVARECRLGSKEGRPFSGVTACLDFCAHPHRDIHNMNNGSTVVCTLTREDNRSLGVIPQDEQLHVLPLYKLSDTDEFGSKEGMEAKIKSGAIEVLAPRRKKRTCFTQPVPRSGKKRAAMMTEVLAHKIRAVEKKPIPRIKRKNNSTTTNNSKPSSLPTLGSNTETVQPEVKSETEPHFILKSSDNTKTYSLMPSAPHPVKEASPGFSWSPKTASATPAPLKNDATASCGFSERSSTPHCTMPSGRLSGANAAAADGPGISQLGEVAPLPTLSAPVMEPLINSEPSTGVTEPLTPHQPNHQPSFLTSPQDLASSPMEEDEQHSEADEPPSDEPLSDDPLSPAEEKLPHIDEYWSDSEHIFLDANIGGVAIAPAHGSVLIECARRELHATTPVEHPNRNHPTRLSLVFYQHKNLNKPQHGFELNKIKFEAKEAKNKKMKASEQKDQAANEGPEQSSEVNELNQIPSHKALTLTHDNVVTVSPYALTHVAGPYNHWVID |  | 135 | time course of activation of hMLH1 transcription (hMLH1; HEK293T, RNA guides 3 and 7, 3, 4, 5 and 6 days post transfection): maintained during the course of these transient transfections
4 | PUFa-VP64: PUF(3-2) domain with NLS fused to VP64 (protein) MGILPPKKKRKVSRGRSRLLEDFRNNRYPNLQLREIAGHIMEFSQDQHGSRFIQLKLERATPAERQLVFNEILQAAYQLMVDVFGNYVIQKFFEFGSLEQKLALAERIRGHVLSLALQMYGSRVIEKALEFIPSDQQNEMVRELDGHVLKCVKDQNGNHVVQKCIECVQPQSLQFIIDAFKGQVFALSTHPYGCRVIQRILEHCLPDQTLPILEELHQHTEQLVQDQYGNYVIQHVLEHGRPEDKSKIVAEIRGNVLVLSQHKFASNVVEKCVTHASRTERAVLIDEVCTMNDGPHSALYTMMKDQYANYVVQKMIDVAEPGQRKIVMHKIRPHIATLRKYTYGKHILAKLEKYYMKNGVDLGGPAGSGRADALDDFDLDMLGSDALDDFDLDMLGSDALDDFDLDMLGSDALDDFDLDMLYID |  |  | activation with only one PBSa (TetO::tdTomato transgene; TetO-targeting sgRNA with 1 copy of PBSa): previously not observed; transgene activation with 15, 20, and 47 copies of PBS (TetO::tdTomato transgene; with dCas9 and sgTetO-PBS, compared with 5-10 copies): slightly lower, albeit still substantial transgene activation
5 | TET1(CD)-PUFa: hTET1 catalytic domain fused to the N-terminus of PUFa (protein) MGPAELPTCSCLDRVIQKDKGPYYTHLGAGPSVAAVREIMENRYGQKGNAIRIEIVVYTGKEGKSSHGCPIAKWVLRRSSDEEKVLCLVRQRTGHHCPTAVMVVLIMVWDGIPLPMADRLYTELTENLKSYNGHPTDRRCTLNENRTCTCQGIDPETCGASFSFGCSWSMYFNGCKFGRSPSPRRFRIDPSSPLHEKNLEDNLQSLATRLAPIYKQYAPVAYQNQVEYENVARECRLGSKEGRPFSGVTACLDFCAHPHRDIHNMNNGSTVVCTLTREDNRSLGVIPQDEQLHVLPLYKLSDTDEFGSKEGMEAKIKSGAIEVLAPRRKKRTCFTQPVPRSGKKRAAMMTEVLAHKIRAVEKKPIPRIKRKNNSTTTNNSKPSSLPTLGSNTETVQPEVKSETEPHFILKSSDNTKTYSLMPSAPHPVKEASPGFSWSPKTASATPAPLKNDATASCGFSERSSTPHCTMPSGRLSGANAAAADGPGISQLGEVAPLPTLSAPVMEPLINSEPSTGVTEPLTPHQPNHQPSFLTSPQDLASSPMEEDEQHSEADEPPSDEPLSDDPLSPAEEKLPHIDEYWSDSEHIFLDANIGGVAIAPAHGSVLIECARRELHATTPVEHPNRNHPTRLSLVFYQHKNLNKPQHGFELNKIKFEAKEAKNKKMKASEQKDQAANEGPEQSSEVNELNQIPSHKALTLTHDNVVTVSPYALTHVAGPYNHWVIDGGGGSDPKKKRKVDPKKKRKVDPKKKRKVGSTGSRNDGGGGSGGGGSGGGGSGRAGILPPKKKRKVSRGRSRLLEDFRNNRYPNLQLREIAGHIMEFSQDQHGSRFIQLKLERATPAERQLVFNEILQAAYQLMVDVFGNYVIQKFFEFGSLEQKLALAERIRGHVLSLALQMYGSRVIEKALEFIPSDQQNEMVRELDGHVLKCVKDQNGNHVVQKCIECVQPQSLQFIIDAFKGQVFALSTHPYGCRVIQRILEHCLPDQTLPILEELHQHTEQLVQDQYGNYVIQHVLEHGRPEDKSKIVAEIRGNVLVLSQHKFASNVVEKCVTHASRTERAVLIDEVCTMNDGPHSALYTMMKDQYANYVVQKMIDVAEPGQRKIVMHKIRPHIATLRKYTYGKHILAKLEKYYMKNGVDLGDPKKKRKVDPKKKRKVGGRGGGGSGGGGSGGGGSGPA |  | ≤ 20 | 
